These are literature values, as cited in patent US8956669B2, “Anticancer and antimicrobial compounds from antarctic extremophilic microorgansims” (priority 2009, dated 2015).

The test system of one series is Mycobacterium smegmatis. The settings on record: literature values, Table 2.
Series [1] has as its system Mycobacterium tuberculosis. The settings on record: literature values, Table 2.

Marks after values point to notes of the source that are not given here.

`O=c1cc(-c2ccccc2O)oc2cc(O)cc(O)c12` [5,7,2′-trihydroxyflavone]: in the series with Mycobacterium smegmatis, the “MIC against Mycobacterium smegmatis” value is listed as 31^h μg/ml. In series [1], the “MIC against Mycobacterium tuberculosis” value was 10^h μg/ml. In the case of `C=CCS[S+]([O-])CC=C` (stereo not drawn) [Allicin], the “MIC against Mycobacterium tuberculosis” value in series [1] is recorded as 25^k μg/ml. Take `O=c1cc(-c2ccccc2)oc2cc(O)c(O)c(O)c12` [Baicalein]: the “MIC against Mycobacterium smegmatis” value in the series on Mycobacterium smegmatis is on record as 64^a μg/ml.

With `O=C(O)[C@H]1O[C@@H](Oc2cc3oc(-c4ccccc4)cc(=O)c3c(O)c2O)[C@H](O)[C@@H](O)[C@@H]1O` [Baicalin], the “MIC against Mycobacterium smegmatis” value with Mycobacterium smegmatis is 256^a μg/ml.

Regarding `COc1ccc(-c2coc3cc(O)cc(O)c3c2=O)cc1` [Biochanin A], the “MIC against Mycobacterium smegmatis” value with Mycobacterium smegmatis is on record as 256^a μg/ml. With `CN(C)CCCN1c2ccccc2Sc2ccc(Cl)cc21` [Chlorpromazine], in the series with Mycobacterium smegmatis, the “MIC against Mycobacterium smegmatis” value is 64^a μg/ml.

As to `O=C(O)c1cn(C2CC2)c2cc(N3CCNCC3)c(F)cc2c1=O` [Ciprofloxacin], the “MIC against Mycobacterium smegmatis” value in the series with Mycobacterium smegmatis is on record as 1^c μg/ml. In addition, in series [1], the “MIC against Mycobacterium tuberculosis” value is on record as 0.5^g μg/ml. On to `O=c1c(-c2ccc(O)cc2)coc2cc(O)ccc12` [Daidzein], for which the “MIC against Mycobacterium smegmatis” value with Mycobacterium smegmatis is reported as 256^a μg/ml. As for `Cc1cc(O)c2c(c1)C(=O)C(c1c(C)cc3c(c1O)C(=O)C=CC3=O)=CC2=O` [Diospyrin], the “MIC against Mycobacterium smegmatis” value in the series with Mycobacterium smegmatis is 100^j μg/ml. For the same compound, the “MIC against Mycobacterium tuberculosis” value in series [1] is on record as 100^j μg/ml. As for `O=c1c(-c2ccc(O)cc2)coc2cc(O)cc(O)c12` [Genistein], the “MIC against Mycobacterium smegmatis” value in the series on Mycobacterium smegmatis is listed as 256^a μg/ml. For the compound `NNC(=O)c1ccncc1` [Isoniazid], the “MIC against Mycobacterium smegmatis” value in the series on Mycobacterium smegmatis is given as 5^b μg/ml. Also, in series [1], the “MIC against Mycobacterium tuberculosis” value was 0.1^f μg/ml. As for `O=c1cc(-c2ccc(O)c(O)c2)oc2cc(O)cc(O)c12` [Luteolin], the “MIC against Mycobacterium smegmatis” value in the series with Mycobacterium smegmatis is given as 32^a μg/ml. Moreover, the “MIC against Mycobacterium tuberculosis” value in series [1] is given as 200^d μg/ml. Regarding `O=c1c(O)c(-c2cc(O)c(O)c(O)c2)oc2cc(O)cc(O)c12` [Myricetin], in the series with Mycobacterium smegmatis, the “MIC against Mycobacterium smegmatis” value is reported as 32^a μg/ml. With `COC(=O)[C@H]1[C@H]2C[C@@H]3c4[nH]c5cc(OC)ccc5c4CCN3C[C@H]2C[C@@H](OC(=O)c2cc(OC)c(OC)c(OC)c2)[C@@H]1OC` [Reserpine], the “MIC against Mycobacterium smegmatis” value with Mycobacterium smegmatis was 128^a μg/ml.

For the compound `Oc1ccc(C=Cc2cc(O)cc(O)c2)cc1` [Resveratrol], the “MIC against Mycobacterium smegmatis” value in the series on Mycobacterium smegmatis is given as 64^a μg/ml.

On to `CO[C@H]1/C=C/O[C@@]2(C)Oc3c(C)c(O)c4c(O)c(c(/C=N/N5CCN(C)CC5)c(O)c4c3C2=O)NC(=O)/C(C)=C\C=C\[C@H](C)[C@H](O)[C@@H](C)[C@@H](O)[C@@H](C)[C@H](OC(C)=O)[C@@H]1C` [Rifampcin], for which the “MIC against Mycobacterium smegmatis” value in the series on Mycobacterium smegmatis is listed as 1^b μg/ml. Besides, the “MIC against Mycobacterium tuberculosis” value in series [1] is 0.1^f μg/ml.

On to `COc1ccc(CCN(C)CCCC(C#N)(c2ccc(OC)c(OC)c2)C(C)C)cc1OC` (stereo not drawn) [Verapamil], for which the “MIC against Mycobacterium smegmatis” value with Mycobacterium smegmatis is 256^a μg/ml. With `Cc1cc(O)c2c(c1)C(=O)c1c(oc3c1c(=O)oc1cccc(C)c13)C2=O` [crassiflorone], the “MIC against Mycobacterium smegmatis” value in the series with Mycobacterium smegmatis is given as 1.22^l μg/ml. The “MIC against Mycobacterium tuberculosis” value in series [1] is given as 39.06^l μg/ml.

Turning to `CC1=CC(=O)c2c(O)cccc2C1=O` [plumbagin], in the series on Mycobacterium smegmatis, the “MIC against Mycobacterium smegmatis” value was 1.22^l μg/ml. The “MIC against Mycobacterium tuberculosis” value in series [1] is reported as 39.06^l μg/ml.

Take Diospyrone: the “MIC against Mycobacterium smegmatis” value with Mycobacterium smegmatis is listed as 1.22^l μg/ml. For the same compound, the “MIC against Mycobacterium tuberculosis” value in series [1] is given as 39.06^l μg/ml. On to Laburnetin, for which the “MIC against Mycobacterium tuberculosis” value in series [1] is listed as 4.88^e μg/ml.
